≈ marks a conversion by molar mass, not a printed value.

Drawing on ChEMBL document CHEMBL5505979, “Novel aminothiazoximone-corbelled ethoxycarbonylpyrimidones with antibiofilm activity to conquer Gram-negative bacteria through potential multitargeting effects” (Eur J Med Chem, 2024), this text covers MIC for four molecules.

Holding throughout (format): functional
The subject of experiment [1] is Staphylococcus aureus. The experiment in a line: Anti-bacterial activity against methicillin-resistant Staphylococcus aureus N315 assessed as inhibition of bacterial growth. As to conditions: Staphylococcus aureus, N315; read-out: MIC.
In experiment [2] the test system is Staphylococcus aureus. The experiment in a line: Anti-bacterial activity against methicillin-resistant Staphylococcus aureus ATCC 43300 assessed as inhibition of bacterial growth. As to conditions: Staphylococcus aureus, ATCC 43300; read-out: MIC.
For the next experiment, the system named is Enterococcus faecalis. The experiment in a line: Anti-bacterial activity against Enterococcus faecalis V583 assessed as inhibition of bacterial growth.
The subject of another experiment is Klebsiella pneumoniae. The experiment in a line: Anti-bacterial activity against Klebsiella pneumoniae KPN325 assessed as inhibition of bacterial growth. As to conditions: Klebsiella pneumoniae, KPN325; read-out: MIC.
For experiment [3], the system named is Staphylococcus aureus. The experiment in a line: Anti-bacterial activity against Staphylococcus aureus ATCC 1708 assessed as inhibition of bacterial growth. As to conditions: Staphylococcus aureus, ATCC 1708; read-out: MIC.
Experiment [4] has as its system Staphylococcus aureus. The experiment in a line: Anti-bacterial activity against Staphylococcus aureus ATCC 25923 assessed as inhibition of bacterial growth. As to conditions: Staphylococcus aureus, ATCC 25923; read-out: MIC.
Experiment [5] has as its system Staphylococcus aureus. The experiment in a line: Anti-bacterial activity against Staphylococcus aureus ATCC 29213 assessed as inhibition of bacterial growth. As to conditions: Staphylococcus aureus, ATCC 29213; read-out: MIC.
Experiment [6] relates to Staphylococcus aureus. The experiment in a line: Anti-bacterial activity against Staphylococcus aureus ATCC 12600 assessed as inhibition of bacterial growth. As to conditions: Staphylococcus aureus, ATCC 12600; read-out: MIC.
In experiment [7] the test system is Staphylococcus aureus. The experiment in a line: Anti-bacterial activity against Staphylococcus aureus ATCC 6538 assessed as inhibition of bacterial growth.
The test system of experiment [8] is Staphylococcus aureus. The experiment in a line: Anti-bacterial activity against Staphylococcus aureus CMCC (B) 26003 assessed as inhibition of bacterial growth.
Experiment [9] relates to Staphylococcus aureus. The experiment in a line: Anti-bacterial activity against Staphylococcus aureus CMCC (B) 26001 assessed as inhibition of bacterial growth.
In experiment [10] the test system is Escherichia coli. The experiment in a line: Anti-bacterial activity against Escherichia coli JM109 assessed as inhibition of bacterial growth.
Experiment [11] has as its system Escherichia coli. The experiment in a line: Anti-bacterial activity against Escherichia coli ATCC 25922 assessed as inhibition of bacterial growth.
Experiment [12] deals with Pseudomonas aeruginosa. The experiment in a line: Anti-bacterial activity against Pseudomonas aeruginosa ST235 assessed as inhibition of bacterial growth. As to conditions: Pseudomonas aeruginosa, ST235; read-out: MIC.
Experiment [13] relates to Pseudomonas aeruginosa. The experiment in a line: Anti-bacterial activity against Pseudomonas aeruginosa ATCC 27853 assessed as inhibition of bacterial growth. As to conditions: Pseudomonas aeruginosa, ATCC 27853; read-out: MIC.
For experiment [14], the system named is Pseudomonas aeruginosa. The experiment in a line: Anti-bacterial activity against Pseudomonas aeruginosa ATCC 15442 assessed as inhibition of bacterial growth. As to conditions: Pseudomonas aeruginosa, ATCC 15442; read-out: MIC.
Experiment [15] has as its system Pseudomonas aeruginosa. The experiment in a line: Anti-bacterial activity against Pseudomonas aeruginosa ATCC 9027 assessed as inhibition of bacterial growth.
Experiment [16] deals with Pseudomonas aeruginosa. The experiment in a line: Anti-bacterial activity against Pseudomonas aeruginosa CMCC (B) 10104 assessed as inhibition of bacterial growth. As to conditions: Pseudomonas aeruginosa, CMCC (B) 10104; read-out: MIC.
In a further experiment the test system is Acinetobacter baumannii. The experiment in a line: Anti-bacterial activity against Acinetobacter baumannii R674 assessed as inhibition of bacterial growth.
Experiment [17] deals with Candida albicans. The experiment in a line: Anti-fungal activity against Candida albicans assessed as inhibition of fungal growth. As to conditions: Candida albicans; read-out: MIC.
The subject of experiment [18] is Candida albicans. The experiment in a line: Anti-fungal activity against Candida albicans 90023 assessed as inhibition of fungal growth.
The next experiment has as its system Candida tropicalis. The experiment in a line: Anti-fungal activity against Candida tropicalis assessed as inhibition of fungal growth. As to conditions: Candida tropicalis; read-out: MIC.
In another experiment the test system is Candida parapsilosis. The experiment in a line: Anti-fungal activity against Candida parapsilosis assessed as inhibition of fungal growth. As to conditions: Lodderomyces parapsilosis; read-out: MIC.

Regarding `CCCCc1nc(Cl)c(C2NC(=O)NC(CN3CCN(CC(=O)c4nccs4)CC3)=C2C(=O)OCC)[nH]1` (configuration not stated), the MIC stood at 117 µM (≈ 64.4 µg/mL) with Staphylococcus aureus [1]; 58 µM (≈ 31.9 µg/mL) in the experiment on Staphylococcus aureus [2]; 117 µM (≈ 64.4 µg/mL) with Enterococcus faecalis; 117 µM (≈ 64.4 µg/mL) in the experiment on Klebsiella pneumoniae; 117 µM (≈ 64.4 µg/mL) with Staphylococcus aureus [3]; 29 µM (≈ 16 µg/mL) with Staphylococcus aureus [4]. In addition, the MIC amounted to 58 µM (≈ 31.9 µg/mL) with Staphylococcus aureus [5]; 58 µM (≈ 31.9 µg/mL) with Staphylococcus aureus [6]; 29 µM (≈ 16 µg/mL) in the experiment on Staphylococcus aureus [7]; 117 µM (≈ 64.4 µg/mL) in the experiment on Staphylococcus aureus [8]; 15 µM (≈ 8.25 µg/mL) in the experiment on Staphylococcus aureus [9]; 58 µM (≈ 31.9 µg/mL) in the experiment on Escherichia coli [10]. Also, the MIC in the experiment with Escherichia coli [11], in the experiment with Pseudomonas aeruginosa [12], in the experiment with Pseudomonas aeruginosa [13], with Pseudomonas aeruginosa [14], in the experiment with Pseudomonas aeruginosa [15] and with Pseudomonas aeruginosa [16] was 58 µM (≈ 31.9 µg/mL) throughout. For the same molecule, the MIC in the experiment with Acinetobacter baumannii was 58 µM (≈ 31.9 µg/mL); with Candida albicans [17], 466 µM (≈ 256 µg/mL); with Candida albicans [18], 29 µM (≈ 16 µg/mL); in the experiment with Candida tropicalis it was 466 µM (≈ 256 µg/mL); in the experiment with Candida parapsilosis, 466 µM (≈ 256 µg/mL).

For `CCOC(=O)C1=C(CN2CCN(C(=O)/C(=N/OC)c3csc(N)n3)CC2)NC(=O)NC1c1nccs1` (configuration not stated), the MIC came out at 240 µM (≈ 128 µg/mL) with Staphylococcus aureus [1]; 120 µM (≈ 64.2 µg/mL) in the experiment with Staphylococcus aureus [2]; 240 µM (≈ 128 µg/mL) with Enterococcus faecalis; 240 µM (≈ 128 µg/mL) in the experiment on Klebsiella pneumoniae; 240 µM (≈ 128 µg/mL) with Staphylococcus aureus [3]; 240 µM (≈ 128 µg/mL) in the experiment with Staphylococcus aureus [4]. Moreover, the minimum inhibitory concentration (MIC) was 479 µM (≈ 256 µg/mL) with Staphylococcus aureus [5]; 120 µM (≈ 64.2 µg/mL) in the experiment on Staphylococcus aureus [6]; 120 µM (≈ 64.2 µg/mL) in the experiment with Staphylococcus aureus [7]; 240 µM (≈ 128 µg/mL) with Staphylococcus aureus [8]; 60 µM (≈ 32.1 µg/mL) in the experiment on Staphylococcus aureus [9]; 240 µM (≈ 128 µg/mL) in the experiment with Escherichia coli [10]. For the same molecule, the minimum inhibitory concentration (MIC) came to 60 µM (≈ 32.1 µg/mL) in the experiment with Escherichia coli [11]; 30 µM (≈ 16 µg/mL) with Pseudomonas aeruginosa [12]; 15 µM (≈ 8.02 µg/mL) in the experiment with Pseudomonas aeruginosa [13]; 120 µM (≈ 64.2 µg/mL) in the experiment on Pseudomonas aeruginosa [14]; 60 µM (≈ 32.1 µg/mL) with Pseudomonas aeruginosa [15]; 240 µM (≈ 128 µg/mL) with Pseudomonas aeruginosa [16]. Besides, the MIC in the experiment on Acinetobacter baumannii was determined as 479 µM (≈ 256 µg/mL); with Candida albicans [17], 479 µM (≈ 256 µg/mL); in the experiment on Candida albicans [18], 60 µM (≈ 32.1 µg/mL); in the experiment on Candida tropicalis, 60 µM (≈ 32.1 µg/mL); in the experiment on Candida parapsilosis it was 479 µM (≈ 256 µg/mL).

On to `CCOC(=O)C1=C(CN2CCN(C(=O)/C(=N/OC)c3csc(N)n3)CC2)NC(=O)NC1c1cccs1` (configuration not stated), for which the MIC was found to be 30 µM (≈ 16 µg/mL) in the experiment with Staphylococcus aureus [1]; 30 µM (≈ 16 µg/mL) with Staphylococcus aureus [2]; 120 µM (≈ 64 µg/mL) in the experiment with Enterococcus faecalis; 240 µM (≈ 128 µg/mL) in the experiment on Klebsiella pneumoniae; 240 µM (≈ 128 µg/mL) in the experiment with Staphylococcus aureus [3]; 240 µM (≈ 128 µg/mL) in the experiment on Staphylococcus aureus [4]. Also, the MIC in the experiment with Staphylococcus aureus [5] was 240 µM (≈ 128 µg/mL); in the experiment with Staphylococcus aureus [6], 240 µM (≈ 128 µg/mL); with Staphylococcus aureus [7], 60 µM (≈ 32 µg/mL); in the experiment with Staphylococcus aureus [8], 240 µM (≈ 128 µg/mL); in the experiment on Staphylococcus aureus [9], 240 µM (≈ 128 µg/mL); in the experiment on Escherichia coli [10], 240 µM (≈ 128 µg/mL). The MIC in the experiment on Escherichia coli [11] stood at 240 µM (≈ 128 µg/mL); in the experiment on Pseudomonas aeruginosa [12] it was 480 µM (≈ 256 µg/mL); in the experiment on Pseudomonas aeruginosa [13], 240 µM (≈ 128 µg/mL); with Pseudomonas aeruginosa [14] it was 60 µM (≈ 32 µg/mL); with Pseudomonas aeruginosa [15], 480 µM (≈ 256 µg/mL); in the experiment with Pseudomonas aeruginosa [16] it was 240 µM (≈ 128 µg/mL). Also, the MIC with Acinetobacter baumannii, in the experiment with Candida albicans [17], with Candida albicans [18], in the experiment with Candida tropicalis and in the experiment with Candida parapsilosis was 480 µM (≈ 256 µg/mL) in each case.

In the case of `CCOC(=O)C1=C(CN2CCN(C(=O)/C(=N/OC)c3csc(N)n3)CC2)NC(=O)NC1c1ccc(O)c(Br)c1` (configuration not stated), the MIC in the experiment on Staphylococcus aureus [1] is 103 µM (≈ 64.1 µg/mL); in the experiment with Staphylococcus aureus [2], 26 µM (≈ 16.2 µg/mL); with Enterococcus faecalis, 13 µM (≈ 8.09 µg/mL); in the experiment on Klebsiella pneumoniae, 52 µM (≈ 32.4 µg/mL); in the experiment on Staphylococcus aureus [3] it was 103 µM (≈ 64.1 µg/mL); in the experiment on Staphylococcus aureus [4], 26 µM (≈ 16.2 µg/mL). Further, the minimal inhibitory concentration (MIC) stood at 52 µM (≈ 32.4 µg/mL) in the experiment with Staphylococcus aureus [5]; 52 µM (≈ 32.4 µg/mL) in the experiment with Staphylococcus aureus [6]; 52 µM (≈ 32.4 µg/mL) in the experiment on Staphylococcus aureus [7]; 103 µM (≈ 64.1 µg/mL) with Staphylococcus aureus [8]; 52 µM (≈ 32.4 µg/mL) in the experiment with Staphylococcus aureus [9]; 52 µM (≈ 32.4 µg/mL) with Escherichia coli [10]. Also, the MIC in the experiment with Escherichia coli [11] worked out at 52 µM (≈ 32.4 µg/mL); in the experiment with Pseudomonas aeruginosa [12] it was 52 µM (≈ 32.4 µg/mL); with Pseudomonas aeruginosa [13], 52 µM (≈ 32.4 µg/mL); in the experiment with Pseudomonas aeruginosa [14], 52 µM (≈ 32.4 µg/mL); in the experiment with Pseudomonas aeruginosa [15], 103 µM (≈ 64.1 µg/mL); in the experiment on Pseudomonas aeruginosa [16], 103 µM (≈ 64.1 µg/mL). Further, the MIC came out at 26 µM (≈ 16.2 µg/mL) with Acinetobacter baumannii; 415 µM (≈ 258 µg/mL) in the experiment with Candida albicans [17]; 104 µM (≈ 64.7 µg/mL) in the experiment on Candida albicans [18]; 415 µM (≈ 258 µg/mL) in the experiment on Candida tropicalis; 415 µM (≈ 258 µg/mL) in the experiment on Candida parapsilosis.

What is called MIC is the lowest concentration found to suppress growth.
